Measurements: US20130005988A1, “2-AZETIDINEMETHANEAMINES AND 2-PYRROLIDINEMETHANEAMINES AS TAAR-LIGANDS” (priority 2007, published 2013)

What was measured:
TAAR1 [1] = molecular target: T1, TAAR1 (Mus musculus, UniProt Q923Y8); assay: Radioligand binding on membranes of HEK293 cells stably expressing TAAR1; settings: radioligand [3H]-rac-2-(1,2,3,4-tetrahydro-1-naphthyl)-2-imidazoline at 60 nM, 4° C., 30 min
T1 construct: expressed in transfected cells; host or cells: HEK293 (ATCC #CRL-1573), stably transfected with pIRESneo2 expression plasmid
Description: (§1) For the construction of expression plasmids the coding sequences of human, rat and mouse TAAR 1 were amplified from genomic DNA essentially as described by Lindemann et al.. The Expand High Fidelity PCR System (Roche Diagnostics) was used with 1.5 mM Mg^2+ and purified PCR products were cloned into pCR2.1-TOPO cloning vector (Invitrogen) following the instructions of the manufacturer. PCR products were subcloned into the pIRESneo2 vector (BD Clontech, Palo Alto, Calif.), and expression vectors were sequence verified before introduction in cell lines.
HEK293 cells (ATCC #CRL-1573) were cultured essentially as described Lindemann et al. (2005). For the generation of stably transfected cell lines HEK293 cells were transfected with the pIRESneo2 expression plasmids containing the TAAR coding sequences (described above) with Lipofectamine 2000 (Invitrogen) according to the instructions of the manufacturer, and 24 hrs post transfection the culture medium was supplemented with 1 mg/ml G418 (Sigma, Buchs, Switzerland). After a culture period of about 10 d clones were isolated, expanded and tested for responsiveness to trace amines (all compounds purchased from Sigma) with the cAMP Biotrak Enzyme immunoassay (EIA) System (Amersham) following the non-acetylation EIA procedure provided by the manufacturer.
Cells at confluence were rinsed with ice-cold phosphate buffered saline without Ca^2+ and Mg^2+ containing 10 mM EDTA and pelleted by centrifugation at 1000 rpm for 5 min at 4° C. The pellet was then washed twice with ice-cold phosphate buffered saline and cell pellet was frozen immediately by immersion in liquid nitrogen and stored until use at −80° C. Cell pellet was then suspended in 20 ml HEPES-NaOH (20 mM), pH 7.4 containing 10 mM EDTA, and homogenized with a Polytron (PT 3000, Kinematica) at 10,000 rpm for 10 s. The homogenate was centrifuged at 48,000×g for 30 min at 4° C. and the pellet resuspended in 20 ml HEPES-NaOH (20 mM), pH 7.4 containing 0.1 mM EDTA (buffer A), and homogenized with a Polytron at 10,000 rpm for 10 s. The homogenate was then centrifuged at 48,000×g for 30 min at 4° C. and the pellet resuspended in 20 ml buffer A, and homogenized with a Polytron at 10,000 rpm for 10 s. Protein concentration was determined by the method of Pierce (Rockford, Ill.). The homogenate was then centrifuged at 48,000×g for 10 min at 4° C., resuspended in HEPES-NaOH (20 mM), pH 7.0 including MgCl2 (10 mM) and […] homogenized with a Polytron at 10,000 rpm for 10 s.
Binding assay was performed at 4° C. in a final volume of 1 ml, and with an incubation time of 30 min. The radioligand [^3H]-rac-2-(1,2,3,4-tetrahydro-1-naphthyl)-2-imidazoline was used at a concentration equal to the calculated Kd value of 60 nM to give a bound at around 0.1% of the total added radioligand concentration, and a specific binding which represented approximately 70-80% of the total binding. Non-specific binding was defined as the amount of [^3H]-rac-2-(1,2,3,4-tetrahydro-1-naphthyl)-2-imidazoline bound in the presence of the appropriate unlabelled ligand (10 μM). Competing ligands were tested in a wide range of concentrations (10 pM-30 μM). […] Each experiment was performed in duplicate. All incubations were terminated by rapid filtration through UniFilter-96 plates (Packard Instrument Company) and glass filter GF/C, pre-soaked for at least 2 h in polyethylenimine 0.3%, and using a Filtermate 96 Cell Harvester (Packard Instrument Company). The tubes and filters were then washed 3 times with 1 ml aliquots of cold buffer B. Filters were not dried and soaked in Ultima gold (45 μl/well, Packard Instrument Company) and bound radioactivity was counted by a TopCount Microplate Scintillation Counter (Packard Instrument Company).

TAAR1 [2] = molecular target: T1, TAAR1; assay: Radioligand Kd used in the TAAR1 binding assay; settings: radioligand in the TAAR1 membrane binding assay; species not stated; read-out: calculated Kd value
Description: as §1
Cells at confluence were rinsed with ice-cold phosphate buffered saline without Ca^2+ and Mg^2+ containing 10 mM EDTA and pelleted by centrifugation at 1000 rpm for 5 min at 4° C. The pellet was then washed twice with ice-cold phosphate buffered saline and cell pellet was frozen immediately by immersion in liquid nitrogen and stored until use at −80° C. […] Protein concentration was determined by the method of Pierce (Rockford, Ill.). […]
Binding assay was performed at 4° C. in a final volume of 1 ml, and with an incubation time of 30 min. […] The tubes and filters were then washed 3 times with 1 ml aliquots of cold buffer B. Filters were not dried and soaked in Ultima gold (45 μl/well, Packard Instrument Company) and bound radioactivity was counted by a TopCount Microplate Scintillation Counter (Packard Instrument Company).

T1 sequence (Q923Y8 whole entry): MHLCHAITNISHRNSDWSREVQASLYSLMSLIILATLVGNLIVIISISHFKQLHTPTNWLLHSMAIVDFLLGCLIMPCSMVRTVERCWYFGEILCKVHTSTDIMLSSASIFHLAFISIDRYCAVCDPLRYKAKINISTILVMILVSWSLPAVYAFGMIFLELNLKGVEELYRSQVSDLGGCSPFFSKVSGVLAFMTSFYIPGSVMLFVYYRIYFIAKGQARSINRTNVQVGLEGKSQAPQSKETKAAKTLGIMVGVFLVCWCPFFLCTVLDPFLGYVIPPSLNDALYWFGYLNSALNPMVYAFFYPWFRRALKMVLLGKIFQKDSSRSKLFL

Ki (TAAR1 [1])	Compound	Kd (TAAR1 [2])
0.0859 µM	COc1cc(N(C)C[C@@H]2CCCN2)ccc1Cl [Example 8, (4-Chloro-3-methoxy-phenyl)-methyl-(8)-1-pyrrolidin-2-ylmethyl-amine]	–
0.0092 µM	CCN(C[C@@H]1CCN1)c1ccccc1 [Example 18, (S)-1-Azetidin-2-ylmethyl-ethyl-phenyl-amine]	–
0.0137 µM	CCN(C[C@@H]1CCN1)c1cccc(OC)c1 [Example 19, (S)-1-Azetidin-2-ylmethyl-ethyl-(3-methoxy-phenyl)-amine]	–
0.0172 µM	CCN(C[C@@H]1CCCN1)c1cccc(Oc2ccccc2)c1 [Example 4, Ethyl-(3-phenoxy-phenyl)-(S)-1-pyrrolidin-2-ylmethyl-amine]	–
0.0213 µM	COc1cc(N(C[C@@H]2CCCN2)C(C)C)ccc1Cl [Example 12, (4-Chloro-3-methoxy-phenyl)-isopropyl-(S)-1-pyrrolidin-2-ylmethyl-amine]	–
0.0131 µM	CCN(C[C@@H]1CCCN1)c1ccc(Cl)cc1 [Example 11, (4-Chloro-phenyl)-ethyl-(8)-1-pyrrolidin-2-ylmethyl-amine]	–
0.0107 µM	Clc1ccc(N(Cc2ccccc2)C[C@@H]2CCN2)cc1 [Example 23, (S)-1-Azetidin-2-ylmethyl-benzyl-(4-chloro-phenyl)-amine]	–
0.041 µM	CC(C)N(C[C@@H]1CCN1)c1ccc(Cl)cc1 [Example 22, (S)-1-Azetidin-2-ylmethyl-(4-chloro-phenyl)-isopropyl-amine]	–
0.0028 µM	CCN(C[C@@H]1CCCN1)c1ccc(Cl)c(Cl)c1 [Example 6, (3,4-Dichloro-phenyl)-ethyl-(S)-1-pyrrolidin-2-ylmethyl-amine]	–
0.0044 µM	CCN(C[C@H]1CCCN1)c1cccc(Oc2ccccc2)c1 [Example 3, Ethyl-(3-phenoxy-phenyl)-(R)-1-pyrrolidin-2-ylmethyl-amine]	–
0.0092 µM	CCN(C[C@@H]1CCCN1)c1ccc(Cl)c(OC)c1 [Example 9, (4-Chloro-3-methoxy-phenyl)-ethyl-(8)-1-pyrrolidin-2-ylmethyl-amine]	–
0.0047 µM	CCN(C[C@@H]1CCN1)c1cccc(Br)c1 [Example 20, (S)-1-Azetidin-2-ylmethyl-(3-bromo-phenyl)-ethyl-amine]	–
0.005 µM	CC(C)N(C[C@@H]1CCCN1)c1ccc(Cl)c(Cl)c1 [Example 13, (3,4-Dichloro-phenyl)-isopropyl-(S)-1-pyrrolidin-2-ylmethyl-amine]	–
0.0056 µM	CCN(C[C@H]1CCCN1)c1ccc(Cl)cc1 [Example 16, (4-Chloro-phenyl)-ethyl-(R)-1-pyrrolidin-2-ylmethyl-amine]	–
0.021 µM	CN(C[C@@H]1CCN1)c1ccc(Cl)cc1 [Example 21, (S)-1-Azetidin-2-ylmethyl-(4-chloro-phenyl)-methyl-amine]	–
–	c1ccc2c(c1)CCCC2C1=NCCN1 (racemic) [[^3H]-rac-2-(1,2,3,4-tetrahydro-1-naphthyl)-2-imidazoline]	60 nM
